Tested on: HBV in primary human hepatocytes (PHH)
Experiment: Cryopreserved primary human hepatocytes (PHH) HBV infection assay
Format: cell-based
Settings: Hepatitis B virus, Hepatocyte, 216 h, HBV-infected cryopreserved PHH, 9 days post-compound treatment, extracellular HBsAg by CLIA; read-out: HBsAg IC50
Method in brief: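 Cryopreserved PHH (5.8×10^4 cells/well) were infected with 5.8×10^6 HBV genome equivalents in 4% PEG8000/1% DMSO medium. Extracellular HBsAg was measured by CLIA and HBV DNA by qPCR, with IC50 from 4-parameter logistic fits.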

`O=C(O)C1CC(OCCOc2ccc(-c3cc(=O)c4cccc(Cl)c4o3)cc2)C1` (stereo not shown) [Example 1, 3-[2-[4-(8-chloro-4-oxo-chromen-2-yl)phenoxy]ethoxy]cyclobutanecarboxylic acid] showed an IC50 of 0.13 µM.

Reference: patent US12012390B2, “Flavone compounds for the treatment and prophylaxis of hepatitis B virus disease” (priority 2018, dated 2024)
